# Source: patent US10047051B2, “Substituted pyridines and method of use” (AbbVie S.á{acute over (.)}r.l., priority 2015, dated 2018)
# Key:
# Type in all cases: cell-based
# CFTR G551D mutant = molecular target: T1, CFTR G551D mutant (Homo sapiens, UniProt P13569, G551D); test: YFP-halide influx assay for the CFTR-G551D mutation (HEK293 cells); details: forskolin 10.67 μM
# T1 construct: expressed in transfected cells; host or cells: HEK293 cells, reverse transfection with plasmids
# How it was run: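 HEK293 cells reverse-transfected with CFTR G551D and halide-sensitive YFP (H148Q/I152L/F47L), expressed 24 h at 37 °C. YFP fluorescence quenching recorded for 7 s after I⁻ injection. Response = 1−F/F0; EC50 derived from 1−F/F0 vs compound concentration.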
# CFTR-G178R = molecular target: T2, CFTR-G178R (Homo sapiens, UniProt P13569, G178R); test: YFP-halide influx assay for the CFTR-G178R
# T2 construct: expressed in transfected cells
# T2 sequence (P13569 whole entry G178R): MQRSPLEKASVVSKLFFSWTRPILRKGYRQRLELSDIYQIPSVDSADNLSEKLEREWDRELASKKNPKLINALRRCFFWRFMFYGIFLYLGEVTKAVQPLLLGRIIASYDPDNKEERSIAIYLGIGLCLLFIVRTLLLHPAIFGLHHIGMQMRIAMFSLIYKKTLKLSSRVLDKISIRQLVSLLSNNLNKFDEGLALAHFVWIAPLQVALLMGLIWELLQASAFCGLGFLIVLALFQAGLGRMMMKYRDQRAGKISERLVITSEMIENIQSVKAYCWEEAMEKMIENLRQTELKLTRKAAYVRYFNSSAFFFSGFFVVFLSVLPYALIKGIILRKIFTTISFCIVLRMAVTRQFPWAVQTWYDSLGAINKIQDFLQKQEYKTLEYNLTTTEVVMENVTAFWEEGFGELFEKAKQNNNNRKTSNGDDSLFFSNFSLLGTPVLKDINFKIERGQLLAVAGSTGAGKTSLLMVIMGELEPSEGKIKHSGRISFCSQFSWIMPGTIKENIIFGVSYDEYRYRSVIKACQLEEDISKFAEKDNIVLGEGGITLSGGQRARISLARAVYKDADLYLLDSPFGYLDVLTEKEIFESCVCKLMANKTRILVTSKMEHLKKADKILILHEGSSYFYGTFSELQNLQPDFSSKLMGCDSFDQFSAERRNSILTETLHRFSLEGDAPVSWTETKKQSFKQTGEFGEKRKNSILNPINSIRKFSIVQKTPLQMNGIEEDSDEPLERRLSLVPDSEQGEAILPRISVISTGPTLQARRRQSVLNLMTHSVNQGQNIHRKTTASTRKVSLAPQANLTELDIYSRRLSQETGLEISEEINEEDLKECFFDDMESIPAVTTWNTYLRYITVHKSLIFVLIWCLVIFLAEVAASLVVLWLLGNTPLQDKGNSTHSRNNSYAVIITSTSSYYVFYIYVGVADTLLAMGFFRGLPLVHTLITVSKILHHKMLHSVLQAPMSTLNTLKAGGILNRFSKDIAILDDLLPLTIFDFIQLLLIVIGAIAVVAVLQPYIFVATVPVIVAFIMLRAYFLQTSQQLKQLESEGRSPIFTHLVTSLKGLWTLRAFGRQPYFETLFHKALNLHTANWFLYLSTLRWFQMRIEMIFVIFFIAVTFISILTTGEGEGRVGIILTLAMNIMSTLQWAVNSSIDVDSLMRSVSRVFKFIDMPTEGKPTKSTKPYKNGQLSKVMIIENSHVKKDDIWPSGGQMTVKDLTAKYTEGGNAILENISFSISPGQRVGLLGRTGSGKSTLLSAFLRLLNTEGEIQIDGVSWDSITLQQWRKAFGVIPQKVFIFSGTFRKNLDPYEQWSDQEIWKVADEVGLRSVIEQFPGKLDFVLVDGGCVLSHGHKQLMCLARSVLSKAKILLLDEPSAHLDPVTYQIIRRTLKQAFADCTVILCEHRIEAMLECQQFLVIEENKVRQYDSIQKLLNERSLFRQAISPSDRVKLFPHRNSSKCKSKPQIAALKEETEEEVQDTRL
# How it was run: (§1)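 HEK293 cells reverse-transfected with a CFTR mutant and YFP H148Q/I152L/F47L halide sensor, expressed 24 h at 37° C. Fluorescence quenching followed for 7 s after I⁻ injection; activity expressed as 1−F/F0, with EC50 fitted from 1−F/F0 versus compound concentration.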
# CFTR-G1349D = molecular target: T3, CFTR-G1349D (Homo sapiens, UniProt P13569, G1349D); test: YFP-halide influx assay for the CFTR-G1349D
# T3 construct: expressed in transfected cells
# T3 sequence (P13569 whole entry G1349D): as the sequence (P13569 whole entry G178R) above, with R178G, G1349D counted along it
# How it was run: as §1
# CFTR-S549N = molecular target: T4, CFTR-S549N (Homo sapiens, UniProt P13569, S549N); test: YFP-halide influx assay for the CFTR-S549N; set-up: % Activation: concentration or dose not given beside the values
# T4 construct: expressed in transfected cells
# T4 sequence (P13569 whole entry S549N): as the sequence (P13569 whole entry G178R) above, with R178G, S549N counted along it
# How it was run: as §1
# CFTR ΔF508 = molecular target: T5, CFTR ΔF508 (Homo sapiens, UniProt P13569, DEL508-508); test: TECC assay, primary bronchial epithelial cells, CFTR ΔF508; details: primary bronchial epithelial cells of CF patients homozygous for CFTR ΔF508, treated with 3 μM VX809, increase in Isc after forskolin
# T5 construct: host or cells: primary human bronchial epithelial cells from CF patients homozygous for ΔF508, pre-treated with VX809
# T5 sequence (P13569 with tags, fused parts or gaps DEL508-508): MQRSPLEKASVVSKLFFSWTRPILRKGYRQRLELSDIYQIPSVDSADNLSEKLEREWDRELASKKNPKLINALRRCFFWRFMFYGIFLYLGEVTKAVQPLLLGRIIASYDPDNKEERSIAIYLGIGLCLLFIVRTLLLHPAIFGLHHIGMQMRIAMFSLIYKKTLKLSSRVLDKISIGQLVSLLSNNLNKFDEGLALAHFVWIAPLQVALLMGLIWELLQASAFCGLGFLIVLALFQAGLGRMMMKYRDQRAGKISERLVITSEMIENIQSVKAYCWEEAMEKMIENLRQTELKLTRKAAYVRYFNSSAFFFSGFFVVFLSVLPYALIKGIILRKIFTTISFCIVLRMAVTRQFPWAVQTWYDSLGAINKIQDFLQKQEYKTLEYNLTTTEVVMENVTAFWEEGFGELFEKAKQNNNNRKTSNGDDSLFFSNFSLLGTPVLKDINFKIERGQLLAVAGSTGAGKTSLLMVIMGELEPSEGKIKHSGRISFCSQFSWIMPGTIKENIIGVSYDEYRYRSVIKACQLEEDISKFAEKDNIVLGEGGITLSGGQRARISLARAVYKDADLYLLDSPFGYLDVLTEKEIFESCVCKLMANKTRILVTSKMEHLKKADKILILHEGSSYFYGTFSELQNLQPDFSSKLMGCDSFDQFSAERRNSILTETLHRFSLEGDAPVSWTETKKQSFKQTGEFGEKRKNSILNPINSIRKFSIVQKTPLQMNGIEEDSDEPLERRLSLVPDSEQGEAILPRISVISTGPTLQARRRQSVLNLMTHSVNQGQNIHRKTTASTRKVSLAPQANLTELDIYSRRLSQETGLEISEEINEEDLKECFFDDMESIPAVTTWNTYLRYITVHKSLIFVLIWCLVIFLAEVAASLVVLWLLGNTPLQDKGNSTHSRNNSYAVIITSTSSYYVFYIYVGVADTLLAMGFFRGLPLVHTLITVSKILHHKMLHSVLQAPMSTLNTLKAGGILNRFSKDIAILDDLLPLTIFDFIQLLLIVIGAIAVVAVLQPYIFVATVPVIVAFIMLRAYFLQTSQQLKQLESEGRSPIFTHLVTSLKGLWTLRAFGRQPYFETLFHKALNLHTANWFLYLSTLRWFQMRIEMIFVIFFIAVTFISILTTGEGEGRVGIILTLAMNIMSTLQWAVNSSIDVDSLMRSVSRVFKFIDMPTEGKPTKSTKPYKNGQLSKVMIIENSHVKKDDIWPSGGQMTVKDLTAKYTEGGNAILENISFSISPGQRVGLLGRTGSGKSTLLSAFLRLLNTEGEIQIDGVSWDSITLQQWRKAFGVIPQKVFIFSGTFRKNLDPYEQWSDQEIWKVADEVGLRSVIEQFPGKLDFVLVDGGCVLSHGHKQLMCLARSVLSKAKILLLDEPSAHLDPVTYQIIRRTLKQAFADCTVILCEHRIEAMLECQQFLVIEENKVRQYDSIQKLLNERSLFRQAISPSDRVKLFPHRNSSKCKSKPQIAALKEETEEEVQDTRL
# Protocol: The TECC (Tranepithelial Clamp Circuit, EP-design) assay measures the functionality of the cystic fibrosis Transmembrane Conductance regulator (CFTR) by measuring the short circuit current (Isc) generated over the basolateral and apical membrane of lung epithelial cells. In TECC the transepithelial potential PD and transepithelial resistance (Rt) are measured in an open circuit and transformed to Isc using Ohm's law. 24 Wells can be measured simultaneously allowing a higher throughput compared to Ussing chambers.
# For this purpose, bronchial epithelial cells isolated from CF patients homozygous for the CFTR ΔF508 mutation (hAEC-CF, Epithelix) are plated on type IV collagen-coated Transwell® supports (Costar). Human airway epithelia are generated by provision of an air-liquid interface for 21 days to form well-differentiated polarized cultures that resemble in vivo pseudo-stratified ciliated epithelium (Fulcher, M. L., Gabriel, S., Burns, K. A., Yankaskas, J. R., Randell, S. H., 2005. Well-differentiated human airway epithelial cell cultures. Methods Mol. Med. 107, 183-206). In the case of the homozygous ΔF508 CFTR samples, the differentiated cells are treated with 3 μM VX809 (2626 South Loop West, Suite 225, Houston, Tex. 77054 USA, Cat n# S1565) to allow sufficient expression of properly folded CFTR protein on the membrane (48 hours basolateral treatment and 24 hours apical treatment), prior to electrophysiological recordings. For heterozygous G551D/ΔF508, differentiated cells are used as such for the recordings.
# Information on the compounds can be retrieved on the homozygous ΔF508 CFTR samples looking at increased CFTR activity when compounds are added in an acute mode or in a chronic mode. On G551D/ΔF508 CFTR heterozygous samples compounds are added in an acute mode to the differentiated cells.
# For the acute mode, for electrophysiological recording, the human airway epithelia are mounted in the TECC heating plate for electrophysiological measurement and kept at 37° C. The epithelia are bathed in a NaCl-Ringer solution (120 mM NaCl, 25 mM NaHCO3, 1.2 mM CaCl2, 1.2 mM MgCl2, 0.8 mM KH2PO4, 0.8 mM K2HPO4, pH 7.4, 5 mM glucose) on both the basolateral and apical sides. Apical amiloride is used to inhibit the endogenous ENaC currents while forkolin is applied on both apical and basolateral side to stimulate CFTR. After forskolin triggering, compounds are added on both sides to test their potential for increasing CFTR gating. Measurements are done during a 20 minute timeframe with recordings every 2 minutes. The increase in Isc is used as a measure for the increased CFTR activity, EC50 values can be generated by measuring impact of different concentrations of compound on Isc on primary cells, for this purpose each transwell is treated with a different compound concentration. Inh-172, an inhibitor specific for CFTR, is used to test the specificity of the tested compounds.
# For the chronic mode, the differentiated cells are treated with 3 μM VX809 (2626 South Loop West, Suite 225, Houston, Tex. 77054 USA, Cat n# S1565) and potentiator compounds at different concentrations (48 hours basolateral treatment and 24 hours apical treatment), prior to electrophysiological recordings. For electrophysiological recording, the human airway epithelia are mounted in the TECC heating plate for electrophysiological measurement and kept at 37° C. The epithelia are bathed in a NaCl-Ringer solution (120 mM NaCl, 25 mM NaHCO3, 1.2 mM CaCl2, 1.2 mM MgCl2, 0.8 mM KH2PO4, 0.8 mM K2HPO4, pH 7.4, 5 mM glucose) on both the basolateral and apical sides. Apical amiloride is used to inhibit the endogenous ENaC currents while forkolin is applied on both apical and basolateral side to stimulate CFTR. Measurements are done during a 20 minute timeframe with recordings every 2 minutes. […]
# T1 sequence (P13569 whole entry G551D): as the sequence (P13569 whole entry G178R) above, with R178G, G551D counted along it
% Activation (CFTR G551D mutant),EC50 (CFTR G551D mutant),% Activation (CFTR-G178R),EC50 (CFTR-G178R),% Activation (CFTR-G1349D),EC50 (CFTR-G1349D),% Activation (CFTR-S549N),EC50 (CFTR-S549N),EC50 (CFTR ΔF508),SMILES
62.5%,739 nM,71.8%,494 nM,69.4%,567 nM,70.3%,331 nM,47.1 nM,"CC(O)(CNC(=O)c1ncc(S(=O)(=O)c2ccc(OC(F)(F)F)cc2)cc1N)C(F)(F)F (stereo not shown) [Compound 2, 3-amino-N-(3,3,3-trifluoro-2-hydroxy-2-methylpropyl)-5-{[4-(trifluoromethoxy)phenyl]sulfonyl}pyridine-2-carboxamide]"
71.6%,1330 nM,70.7%,741 nM,66.7%,816 nM,68.9%,1100 nM,–,"Nc1cc(S(=O)(=O)c2ccc(OC(F)(F)F)cc2)cnc1C(=O)NCCO [Compound 14, 3-amino-N-(2-hydroxyethyl)-5-{[4-(trifluoromethoxy)phenyl]sulfonyl}pyridine-2-carboxamide]"
65.8%,1940 nM,78.0%,522 nM,88.0%,536 nM,91.7%,711 nM,72.9 nM,"Nc1cc(S(=O)(=O)c2ccc(OC(F)(F)F)cc2)cnc1C(=O)N1CC(O)C1 [Compound 32, (3-amino-5-{[4-(trifluoromethoxy)phenyl]sulfonyl}pyridin-2-yl)(3-hydroxyazetidin-1-yl)methanone]"
108.0%,239 nM,104.8%,12.6 nM,96.01%,9.54 nM,107%,11.1 nM,9.49 nM,"Nc1cc(S(=O)(=O)c2ccccc2OC(F)(F)F)cnc1C(=O)NC[C@@H](O)C(F)(F)F [Compound 81, 3-amino-N-[(2R)-3,3,3-trifluoro-2-hydroxypropyl]-5-{[2-(trifluoromethoxy)phenyl]sulfonyl}pyridine-2-carboxamide]"
80.8%,315 nM,–,–,–,–,–,–,24 nM,"Nc1cc(S(=O)(=O)c2ccc(OC(F)(F)F)cc2)cnc1C(=O)NC[C@H](O)C(F)(F)F [Compound 26, 3-amino-N-[(2S)-3,3,3-trifluoro-2-hydroxypropyl]-5-{[4-(trifluoromethoxy)phenyl]sulfonyl}pyridine-2-carboxamide]"
47.1%,700 nM,82.7%,302 nM,69.6%,265 nM,72.7%,580 nM,95.9 nM,"CC(C)(O)CNC(=O)c1ncc(S(=O)(=O)c2ccc(OC(F)(F)F)cc2)cc1N [Compound 1, 3-amino-N-(2-hydroxy-2-methylpropyl)-5-{[4-(trifluoromethoxy)phenyl]sulfonyl}pyridine-2-carboxamide]"
70.2%,656 nM,81.76%,392 nM,84.31%,440 nM,84.51%,1200 nM,62.2 nM,"Nc1cc(S(=O)(=O)c2ccc(OC(F)(F)F)cc2)cnc1C(=O)N1CC(F)(F)C1 [Compound 40, (3-amino-5-{[4-(trifluoromethoxy)phenyl]sulfonyl}pyridin-2-yl)(3,3-difluoroazetidin-1-yl)methanone]"
67.2%,976 nM,76.8%,211 nM,82.6%,412 nM,82.5%,292 nM,38.6 nM,"Nc1cc(S(=O)(=O)c2ccc(F)cc2)cnc1C(=O)NC[C@H](O)C(F)(F)F [Compound 25, 3-amino-5-[(4-fluorophenyl)sulfonyl]-N-[(2S)-3,3,3-trifluoro-2-hydroxypropyl]pyridine-2-carboxamide]"
85.1%,1200 nM,86.1%,284 nM,88.9%,498 nM,86.4%,748 nM,35.5 nM,"C[C@H](O)CNC(=O)c1ncc(S(=O)(=O)c2ccc(OC(F)(F)F)cc2)cc1N [Compound 21, 3-amino-N-[(2S)-2-hydroxypropyl]-5-{[4-(trifluoromethoxy)phenyl]sulfonyl}pyridine-2-carboxamide]"
83.7%,271 nM,–,–,–,–,–,–,13.2 nM,"Nc1cc(S(=O)(=O)c2ccc(OC(F)(F)F)cc2)cnc1C(=O)NC[C@@H](O)C(F)(F)F [Compound 37, 3-amino-N-[(2R)-3,3,3-trifluoro-2-hydroxypropyl]-5-{[4-(trifluoromethoxy)phenyl]sulfonyl}pyridine-2-carboxamide]"
75.3%,864 nM,96.0%,425 nM,89.6%,378 nM,104.7%,526 nM,38.8 nM,"COC[C@H](O)CNC(=O)c1ncc(S(=O)(=O)c2ccc(C(F)(F)F)cc2)cc1N [Compound 70, 3-amino-N-[(2R)-2-hydroxy-3-methoxypropyl]-5-{[4-(trifluoromethyl)phenyl]sulfonyl}pyridine-2-carboxamide]"
71.7%,425 nM,84.3%,348 nM,86.8%,511 nM,91.4%,567 nM,48.4 nM,"Nc1cc(S(=O)(=O)c2ccc(OC(F)(F)F)cc2)cnc1C(=O)NCC(O)COCC1CC1 (stereo not shown) [Compound 31, 3-amino-N-[3-(cyclopropylmethoxy)-2-hydroxypropyl]-5-{[4-(trifluoromethoxy)phenyl]sulfonyl}pyridine-2-carboxamide]"
59.1%,1140 nM,78.7%,546 nM,75.5%,533 nM,103.0%,648 nM,–,"C[C@H](O)CNC(=O)c1ncc(S(=O)(=O)c2ccc(C(F)(F)F)cc2)cc1N [Compound 100, 3-amino-N-[(2S)-2-hydroxypropyl]-5-{[4-(trifluoromethyl)phenyl]sulfonyl}pyridine-2-carboxamide]"
